# Measurements taken from patent US20130022620A1, “ASSAYS AND METHODS PERTAINING TO PRE-AMYLOID INTERMEDIATES” (priority 2011, published 2013).
# Positions of bridges follow the written chain, without caps; N, C: chain ends. No end group written: not given here.
# B1: rat IAPP (peptide, UniProt P12969 38-74, looked up)
# peptide: KCNTATCATQRLANFLVRSSNNLGPVLPPTNVGSNTY-NH2
# modifications: disulfide 2-7
# notes: mature; also called non-toxic rat IAPP; non-amyloidogenic rat IAPP
# B2: I26P-IAPP (I26P point mutant of human IAPP) (peptide)
# peptide: KCNTATCATQRLANFLVHSSNNFGAPLSSTNVGSNTY-NH2
# modifications: disulfide 2-7; N-terminus assumed
# SMILES: CC(C)C[C@H](NC(=O)[C@H](CCCNC(=N)N)NC(=O)[C@H](CCC(N)=O)NC(=O)[C@@H](NC(=O)[C@H](C)NC(=O)[C@@H]1CSSC[C@H](NC(=O)[C@@H](N)CCCCN)C(=O)N[C@@H](CC(N)=O)C(=O)N[C@@H]([C@@H](C)O)C(=O)N[C@@H](C)C(=O)N[C@@H]([C@@H](C)O)C(=O)N1)[C@@H](C)O)C(=O)N[C@@H](C)C(=O)N[C@@H](CC(N)=O)C(=O)N[C@@H](Cc1ccccc1)C(=O)N[C@@H](CC(C)C)C(=O)N[C@H](C(=O)N[C@@H](Cc1c[nH]cn1)C(=O)N[C@@H](CO)C(=O)N[C@@H](CO)C(=O)N[C@@H](CC(N)=O)C(=O)N[C@@H](CC(N)=O)C(=O)N[C@@H](Cc1ccccc1)C(=O)NCC(=O)N[C@@H](C)C(=O)N1CCC[C@H]1C(=O)N[C@@H](CC(C)C)C(=O)N[C@@H](CO)C(=O)N[C@@H](CO)C(=O)N[C@H](C(=O)N[C@@H](CC(N)=O)C(=O)N[C@H](C(=O)NCC(=O)N[C@@H](CO)C(=O)N[C@@H](CC(N)=O)C(=O)N[C@H](C(=O)N[C@@H](Cc1ccc(O)cc1)C(N)=O)[C@@H](C)O)C(C)C)[C@@H](C)O)C(C)C
# notes: also called nontoxic, aggregation-prone I26P-IAPP variant of h-IAPP
# How the values were obtained:
# rat INS-1 β-cells = assay: AlamarBlue cell viability assay of β-cells; format: cell-based; details: for onset and duration of toxicity compared to wild type: side-by-side with kinetics, 20 uM for the Ser-20 mutants
# Description: Transformed rat insulinoma-1 (INS-1) β-cells (which express RAGE) are a pancreatic beta cell line commonly used for studies of h-IAPP induced toxicity. INS-1 cells were grown in RPMI 1640 supplemented with 10% fetal bovine serum (FBS), 11 mM glucose, 10 mM Hepes, 2 mM L-glutamine, 1 mM sodium pyruvate, 50 μM β-mercaptoethanol, 100 U/ml penicillin, and […] streptomycin. Cells were maintained at 37° C./5% CO2.
# Cyto-toxicity was measured by AlamarBlue assay. INS-1 β-cells were seeded at a density of 30,000 cells per well in 96-well plates and cultured for 24 hours prior to stimulation with IAPP. Human and rat IAPP were dissolved and incubated in 16 mM tris HCl (pH 7.4, 25° C.) prior to cell stimulation. AlamarBlue was diluted ten-fold in culture media and cells were incubated for 5 hours at 37° C. Fluorescence (excitation 530; emission 590 nm) was measured on a Beckman Coulter DTX880 fluorescent plate reader. Values calculated were relative to those of control cells treated with buffer only. All values represent means±SEM (n=3).
# Changes in cell morphology were examined by light microscopy to provide a second method of evaluating cell viability. Transformed rat INS-1 beta cells were photographed immediately prior to assessment of toxicity by Alamar blue cell viability assays. Images were taken using an Olympus BX-61 light microscope.
# [1] = Thioflavin-T kinetics and TEM of amyloid formation by IAPP peptides; format: physicochemical
# Description: Thioflavin-T fluorescence was used to monitor the time course of h-IAPP amyloid formation in the presence and absence of sRAGE. To identify which form(s) of h-IAPP interact with RAGE, sRAGE was added to h-IAPP at various time points during the h-IAPP amyloid formation reaction. Aliquots of the reaction mixture were analyzed by adding 100 uL aliquots of the amyloid formation reaction to 96-well plates containing 8 uL of 60 uM thioflavin-T solution at various incubation times after initiation of the amyloid formation reaction. Fluorescence was measured using a Beckman Coulter DTX880 fluorescent plate reader (excitation: 445 nm and emission: 485 nm). Final solution conditions contained 16 mM tris HCl and […] thioflavin-T (pH 7.4). […] All values represent means±SEM (n=3).
# Transient kinetic species of h-IAPP were characterized by TEM. TEM images confirm the presence or absence of amyloid which were indicated by thioflavin-T fluorescence. Aliquots (4 μl) were removed from the reaction mixtures monitored by thioflavin-T assays, placed on a carbon-coated 200-mesh copper grid and negatively stained with saturated uranyl acetate. The samples were imaged with a Philips CM12 transmission electron microscope at the New York University electron microscopy core facility. Final solution conditions contained 16 mM tris HCl (pH 7.4).
# [2] = test system: MCP-1 and IL-1β mRNA expression; assay: qRT-PCR of MCP-1 and IL-1β mRNA in smooth muscle cells; format: cell-based, mouse; details: peptide stimulation
# Description: Mouse vascular SMCs were cultured from the aortas of 10-week-old male mice using a modification of the procedure of Tarvo and Barret. See Tarvo et al. Blood Vessels. 1980; 17:110-116. SMCs were cultured following an explant protocol in accordance with institutional guidelines. Cultures were composed of 95% SM-α-actin positivity based on immunostaining.
# (§1) Assays for qRT-PCR were carried out in 6-well plates. Total cellular RNA was isolated from h-IAPP stimulated β-cells using Qiagen RNA isolation kit, and the quality of RNA samples was determined by measurement of 260:280 ratio. Only samples with a 260:280 ratio of 2.0 or higher were used for reverse transcription. RNA samples were also treated by RNAse-free DNAse to avoid genomic DNA contamination. One microgram of RNA from each sample was reverse-transcribed to cDNA using MCP-1 and IL-1β primers. Non-template negative controls were also performed to monitor non-specific reactions. RNA isolated from rat IAPP and non-h-IAPP treated beta cells were used as negative controls. Equal amounts of RNA were used in each qRT-PCR reaction, and 18S was used as the internal control for amplification at the same time. qRT-PCR reactions were carried out using an Applied Biosystems 7500 RealTime PCR machine. The relative mRNA contents were normalized using 18S and quantification was carried out using qRT-PCR Quantifier Software.
# sRAGE [3] = molecular target: T1, sRAGE (Homo sapiens, UniProt Q15109); assay: Difference CD of IAPP peptides with sRAGE; format: binding; details: end point of the reactions
# T1 construct: the soluble extracellular domain of RAGE (sRAGE); made in house; host or cells: Sf9 insect cells (baculovirus)
# Description: CD measurements of IAPP, sRAGE and IAPP/sRAGE reactions were taken at various incubation times. Far-UV CD experiments monitor the development of secondary structure of h-IAPP species and give insight into the conformational requirement for IAPP/RAGE-binding. All CD experiments were performed on an Applied Photophysics circular dichroism spectrophotometer by directly transferring 300 μL of peptide solution from kinetic assays into a 0.1 cm quartz cuvette a few minutes prior to data collection. The CD spectra for sRAGE and tris HCl buffer was subtracted from all RAGE/IAPP mixtures. The final far-UV CD data was collected over the range of 190 to 260 nm. Final solution conditions contained 16 mM tris HCl (pH 7.4).
# sRAGE [4] = molecular target: T1, sRAGE; assay: Tryptophan fluorescence quenching assay of sRAGE binding; details: sRAGE added at different time points of the reaction, 1:1 molar ratio
# Description: The quenching of tryptophan fluorescence indicates binding. Fluorescence measurements were made at right angle in a […] dual path length quartz cuvette, using a Photon Technology International fluorescent spectrometer (280 nm excitation and 350 nm emission). Background fluorescence from buffer and IAPP peptides were negligible. The fluorescence quantum yield reported for each time point is an average of 20 reads over 20 seconds (2.5 nm bandwidth and 1 second integration time). Final solution conditions contained 16 mM tris HCl (pH 7.4).
# [5] = test system: MCP-1 and IL-1β mRNA expression; assay: qRT-PCR of MCP-1 and IL-1β mRNA in β-cells; format: cell-based, rat; details: β-cells stimulated with peptide
# Description: as §1
# [6] = molecular target: T2, soluble RAGE (sRAGE), soluble extracellular domain of the receptor for advanced glycation endproducts (human, UniProt Q15109 23-342, glycosylated (heterogeneity in GlcN and GlcNAc glycosylation by MALDI-TOF)); assay: tryptophan fluorescence quenching
# T2 construct: The purification protocol gives two species, full length (36,254 Da) and C-truncated (34,710 Da); also called human sRAGE
# Description: (E) Trp fluorescence quenching experiments.
# Binding of ligands to this region should alter the environment of the tryptophans and lead to a change in their fluorescent quantum yield. Thus, the quenching of tryptophan fluorescence can be used to monitor binding.
# [7] = molecular target: T2, soluble RAGE (sRAGE), soluble …; assay: tryptophan fluorescence quenching; sRAGE added at different time points of the aggregation reaction
# T1 sequence (Q15109 23-342): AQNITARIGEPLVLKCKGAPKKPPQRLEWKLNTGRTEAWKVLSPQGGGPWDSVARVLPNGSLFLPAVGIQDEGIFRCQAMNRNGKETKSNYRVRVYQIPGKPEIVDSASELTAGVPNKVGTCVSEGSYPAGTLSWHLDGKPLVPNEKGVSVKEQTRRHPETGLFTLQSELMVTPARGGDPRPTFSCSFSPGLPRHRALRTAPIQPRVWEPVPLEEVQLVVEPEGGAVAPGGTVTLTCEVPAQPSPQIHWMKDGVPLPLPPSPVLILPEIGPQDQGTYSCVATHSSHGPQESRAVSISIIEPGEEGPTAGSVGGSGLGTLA
# T2 sequence (Q15109 23-342): as above
molecule,measurement,setting,value
"3×L-IAPP: h-IAPP triple mutant in which leucines replaced F15, F23 and Y37 (KCNTATCATQRLANLLVHSSNNLGAILSSTNVGSNTL-NH2; disulfide 2-7; N-terminus assumed; SMILES CC[C@H](C)[C@H](NC(=O)[C@H](C)NC(=O)CNC(=O)[C@H](CC(C)C)NC(=O)[C@H](CC(N)=O)NC(=O)[C@H](CC(N)=O)NC(=O)[C@H](CO)NC(=O)[C@H](CO)NC(=O)[C@H](Cc1c[nH]cn1)NC(=O)[C@@H](NC(=O)[C@H](CC(C)C)NC(=O)[C@H](CC(C)C)NC(=O)[C@H](CC(N)=O)NC(=O)[C@H](C)NC(=O)[C@H](CC(C)C)NC(=O)[C@H](CCCNC(=N)N)NC(=O)[C@H](CCC(N)=O)NC(=O)[C@@H](NC(=O)[C@H](C)NC(=O)[C@@H]1CSSC[C@H](NC(=O)[C@@H](N)CCCCN)C(=O)N[C@@H](CC(N)=O)C(=O)N[C@@H]([C@@H](C)O)C(=O)N[C@@H](C)C(=O)N[C@@H]([C@@H](C)O)C(=O)N1)[C@@H](C)O)C(C)C)C(=O)N[C@@H](CC(C)C)C(=O)N[C@@H](CO)C(=O)N[C@@H](CO)C(=O)N[C@H](C(=O)N[C@@H](CC(N)=O)C(=O)N[C@H](C(=O)NCC(=O)N[C@@H](CO)C(=O)N[C@@H](CC(N)=O)C(=O)N[C@H](C(=O)N[C@@H](CC(C)C)C(N)=O)[C@@H](C)O)C(C)C)[C@@H](C)O; UniProt P10997 34-70, looked up, variant F15L F23L Y37L)",onset and duration of toxicity compared to wild type,rat INS-1 β-cells,longer duration of toxicity than observed with wild type
same,"amyloid formation, slower than wild type","[1]; triple mutant, leucines at positions 15, 23 and 37",6 fold
"S20K-IAPP: h-IAPP with Ser-20 substituted by lysine (KCNTATCATQRLANFLVHSKNNFGAILSSTNVGSNTY-NH2; disulfide 2-7; N-terminus assumed; SMILES CC[C@H](C)[C@H](NC(=O)[C@H](C)NC(=O)CNC(=O)[C@H](Cc1ccccc1)NC(=O)[C@H](CC(N)=O)NC(=O)[C@H](CC(N)=O)NC(=O)[C@H](CCCCN)NC(=O)[C@H](CO)NC(=O)[C@H](Cc1c[nH]cn1)NC(=O)[C@@H](NC(=O)[C@H](CC(C)C)NC(=O)[C@H](Cc1ccccc1)NC(=O)[C@H](CC(N)=O)NC(=O)[C@H](C)NC(=O)[C@H](CC(C)C)NC(=O)[C@H](CCCNC(=N)N)NC(=O)[C@H](CCC(N)=O)NC(=O)[C@@H](NC(=O)[C@H](C)NC(=O)[C@@H]1CSSC[C@H](NC(=O)[C@@H](N)CCCCN)C(=O)N[C@@H](CC(N)=O)C(=O)N[C@@H]([C@@H](C)O)C(=O)N[C@@H](C)C(=O)N[C@@H]([C@@H](C)O)C(=O)N1)[C@@H](C)O)C(C)C)C(=O)N[C@@H](CC(C)C)C(=O)N[C@@H](CO)C(=O)N[C@@H](CO)C(=O)N[C@H](C(=O)N[C@@H](CC(N)=O)C(=O)N[C@H](C(=O)NCC(=O)N[C@@H](CO)C(=O)N[C@@H](CC(N)=O)C(=O)N[C@H](C(=O)N[C@@H](Cc1ccc(O)cc1)C(N)=O)[C@@H](C)O)C(C)C)[C@@H](C)O; UniProt P10997 34-70, looked up, variant S20K)",onset and duration of toxicity compared to wild type,rat INS-1 β-cells,shifts the onset of toxicity to later time points and increases its duration
same,rate of aggregation compared to wild type,"[1]; 20 uM, pH 7.4 25° C.",slower aggregation rate
"rat IAPP: non-amyloidogenic, non-toxic rat IAPP used as negative control",MCP-1 and IL-1β mRNA expression in smooth muscle cells,[2],rat IAPP does not
same,"cell toxicity (AlamarBlue cell viability, light microscopy)","rat INS-1 β-cells; peptide incubated in buffer at room temperature for various times, then applied to INS-1 β-cells",No toxicity was observed at any time point
same,interaction with sRAGE (difference CD),sRAGE [3],does not interact
same,binding to sRAGE (tryptophan fluorescence quenching),sRAGE [4],No binding
same,MCP-1 and IL-1β mRNA expression,[5],does not induce up-regulation
same,amyloid formation (thioflavin-T),[1]; peptide by itself,does not form amyloid at any time point
B1,binding result,[6],"no binding (tested: 20 µM rat IAPP, 1:1 molar ratio)"
B2,binding result,[7],no binding
